The structures appear in SMILES notation.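 Following 48 hours of exposure in 96-well plates, responses at five concentrations were used to interpolate endpoints linearly. GI50: concentration for 50% inhibition of growth. TGI: total growth inhibition.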

Common to all, as to test: DTP human tumour cell line panel, 48 h
The subject of test [1] is OVCAR-4 ovarian.
The test system of test [2] is UACC-257 melanoma.
In test [3] the test system is UACC-62 melanoma.
Test [4] relates to COLO 205 colon.
Test [5] has as its system SF-295 CNS.
Test [6] relates to NCI-H522 lung.
For test [7], the system named is HT29 colon.
Test [8] relates to SW-620 colon.
Test [9] has as its system RPMI-8226 leukemia.
For test [10], the system named is U251 CNS.

Usually GI50 stands for the concentration at which growth is held to half of that of the control. By TGI is commonly meant the concentration at which net growth stops. A high value points to lower sensitivity of the cells. For `COc1ccc(-c2nn(-c3cccc(NC(=O)c4ccc(N5CCOCC5)c(C(F)(F)F)c4)c3)cc2-c2ccncc2)cc1Cl`, the GI50 is 36200 nM in test [1]; greater than 50000 nM in test [2]; 8690 nM in [3]; 4250 nM in test [4]; 2310 nM in test [5]; 2770 nM in [6]. The GI50 in test [7] was 1720 nM; in test [8], 21.3 µM; in test [9] it was 2060 nM; in test [10] it was 1140 nM. The TGI in test [1] was greater than 50 µM; in test [2], greater than 50 µM; in [3], greater than 50 µM; in test [4] it was greater than 50 µM; in test [5] it was greater than 50 µM; in test [6] it was 34.4 µM. The TGI in [7], in test [8], in test [9] and in [10] was greater than 50 µM each time.
For the molecule `O=C1OC(CN2CCOCC2)CN1/N=C/c1ccc([N+](=O)[O-])o1` (stereo not given), the TGI in test [1] was greater than 100 µM; in test [2], greater than 100 µM; in test [3] it was 99.2 µM; in test [4] it was greater than 100 µM; in test [5], greater than 100 µM; in [6], 72.3 µM. Moreover, the total growth inhibition concentration (TGI) in test [7] is greater than 100 µM; in test [8] it was greater than 100 µM; in test [9], greater than 100 µM; in test [10] it was 98.6 µM.
Take `COC(=O)[C@@H](C)C[C@H](Cc1ccccc1)NC(=O)c1csc([C@@H](C[C@H](C(C)C)N(C)C(=O)[C@H](C)NC(=O)[C@H]2CCCCN2C)OC(C)=O)n1`: the GI50 in test [1] was 2050 nM; in test [2], greater than 25000 nM; in test [3], 1270 nM; in [4] it was 1120 nM; in test [5] it was 3950 nM; in [6], 384 nM. For the same molecule, the GI50 in test [7] is 816 nM; in test [8] it was 0.861 µM; in test [9], 567 nM; in test [10], 1580 nM. Also, the concentration for total growth inhibition (TGI) was greater than 25 µM in test [1]; greater than 25 µM in test [2]; greater than 25 µM in [3]; 20.2 µM in [4]; greater than 25 µM in test [5]; 1.35 µM in test [6]. For the same molecule, the total growth inhibition concentration (TGI) in test [7], in test [8], in test [9] and in test [10] was greater than 25 µM each time.
`CNC(=O)OCC1C2=C(C(=O)C(C)=C(N)C2=O)N2CC3C(N3C)C12OC` (stereo not given): the TGI in test [1] is 33 µM; in test [2], 70.9 µM; in [3], 22.2 µM; in [4] it was 31.7 µM; in test [5] it was 67 µM; in [6], 19.2 µM. The TGI was 34.7 µM in test [7], 24.2 µM in test [8], greater than 100 µM in test [9] and 45.7 µM in test [10].
In the case of `CCc1nc(N)nc(N)c1-c1ccc(Cl)c(N=CN(C)C)c1`, the TGI in [1] was greater than 100 µM; in [2] it was greater than 100 µM; in [3], greater than 100 µM; in [4] it was greater than 100 µM; in test [5], greater than 100 µM; in [6], 62.7 µM. The TGI in test [7], in test [8], in [9] and in test [10] was greater than 100 µM each time.
On to `O=C1OC(c2ccccc2)=N/C1=C\c1cccc(F)c1`, for which the TGI in test [1] is 94.9 µM; in test [2] it was 88.2 µM; in [3], greater than 100 µM; in test [4], greater than 100 µM; in test [5], greater than 100 µM; in test [6] it was 40.1 µM. Moreover, the TGI in test [7] is greater than 100 µM; in [8], greater than 100 µM; in test [9], 50.1 µM; in test [10], greater than 100 µM.
Consider `Cc1nc(Nc2nc3ccccc3o2)nc(-c2cccc([N+](=O)[O-])c2)c1C(=O)Nc1ccc(F)c(Cl)c1`, for which the GI50 is 1620 nM in test [1]; 2310 nM in [2]; 2290 nM in [3]; 1780 nM in test [4]; 1650 nM in test [5]; 1390 nM in test [6]. Further, the GI50 in test [7] is 2210 nM; in test [8], 3.09 µM; in test [9] it was 724 nM; in test [10] it was 2060 nM. Moreover, the TGI in test [1] was 35 µM; in [2], 8.23 µM; in test [3], greater than 100 µM; in test [4] it was 3.4 µM; in test [5], 7.09 µM; in test [6], 5.71 µM. Moreover, the TGI in test [7] was 19.5 µM; in test [8], greater than 100 µM; in test [9], 4.26 µM; in [10], 8.27 µM.
Take `CO[C@H]1CC(c2ccc[nH]2)=N[C@]12O[C@@H](C)C[C@@H]1CCCCCCCc3ccc([nH]3)[C@H]12`: the GI50 was 508 nM in test [1]; 1330 nM in test [2]; 659 nM in test [3]; 794 nM in test [4]; 1390 nM in test [5]; 1290 nM in [6]. Further, the GI50 in test [7] is 1040 nM; in test [8], 1.05 µM; in test [9], 693 nM; in test [10] it was 1140 nM. Further, the TGI worked out at 22.2 µM in test [1]; 7.63 µM in test [2]; 1.45 µM in test [3]; 4.68 µM in [4]; 7.92 µM in test [5]; 9.98 µM in test [6]. Besides, the TGI in test [7] was greater than 33.3 µM; in test [8] it was 7.96 µM; in test [9], 2.96 µM; in test [10], 17.3 µM.
Consider `COc1cc(/C=C/C(=O)c2cccnc2Nc2ccc(F)cc2)cc(OC)c1OC`, for which the GI50 in [1] was 3810 nM; in [2] it was 2900 nM; in test [3], 2350 nM; in test [4], 2640 nM; in test [5], 4160 nM; in test [6] it was 2690 nM. The GI50 in test [7] is 2750 nM; in test [8], 3.3 µM; in test [9] it was 2430 nM; in test [10] it was 2780 nM. The TGI in [1] amounted to 19 µM; in [2], 21.6 µM; in test [3], 6.58 µM; in test [4], 5.53 µM; in [5], 69.4 µM; in test [6], 7.04 µM. For the same molecule, the TGI is 6.69 µM in test [7], 24.1 µM in test [8], 8.07 µM in test [9] and 11.5 µM in [10].

For the origin of these results see PubChem BioAssay (NCI).
